Measured values as given in US20240239781A1, “1H-PYRAZOLE DERIVATIVES AS SIGMA LIGANDS” (ACONDICIONAMIENTO TARRASENSE, priority 2021, published 2024).

What was measured:
human σ1 receptor = target: T1, human σ1 receptor (Homo sapiens, UniProt Q99720); test: Human σ1 receptor radioligand assay ([3H](+)-pentazocine, transfected HEK-293 membranes); settings: class scale, read-out: Binding σ-1 Ki
T1 construct: expressed in transfected cells; host or cells: HEK-293
Experimental: Transfected HEK-293 membranes (7 μg) were incubated with 5 nM of [^3H](+)-pentazocine in assay buffer containing Tris-HCl 50 mM at pH 8. NBS (non-specific binding) was measured by adding 10 μM haloperidol. The binding of the test compound was measured at either one concentration (% inhibition at 1 or 10 μM) or five different concentrations to determine affinity values (Ki). Plates were incubated at 37° C. for 120 minutes. After the incubation period, the reaction mix was then transferred to MultiScreen HTS, FC plates (Millipore), filtered and plates were washed 3 times with ice-cold 10 mM Tris-HCL (pH7.4). Filters were dried and counted at approximately 40% efficiency in a MicroBeta scintillation counter (Perkin-Elmer) using EcoScint liquid scintillation cocktail.

human σ2/TMEM97 receptor = target: T2, human σ2/TMEM97 receptor (Homo sapiens, UniProt Q5BJF2); test: Binding assay to human σ2/TMEM97 receptor ([3H]-DTG, transfected HEK-293 membranes); settings: class scale, read-out: Binding σ-2 Ki
T2 construct: expressed in transfected cells; host or cells: HEK-293
Experimental: Transfected HEK-293 membranes (15 μg) were incubated with 10 nM [^3H]-1,3-Di-o-tolylguanidine (DTG) in assay buffer containing Tris-HCl 50 mM at pH 8.0. NSB (non-specific binding) was measured by adding 10 μM haloperidol. The binding of the test compound was measured at either one concentration (% inhibition at 1 or 10 μM) or five different concentrations to determine affinity values (Ki). Plates were incubated at 25° C. for 120 minutes. After the incubation period, the reaction mix was transferred to MultiScreen HTS, FC plates (Millipore), filtered and washed 3 times with ice-cold 10 mM Tris-HCL (pH 8.0). Filters were dried and counted at approximately 40% efficiency in a MicroBeta scintillation counter (Perkin-Elmer) using EcoScint liquid scintillation cocktail.

T2 sequence (Q5BJF2 whole entry): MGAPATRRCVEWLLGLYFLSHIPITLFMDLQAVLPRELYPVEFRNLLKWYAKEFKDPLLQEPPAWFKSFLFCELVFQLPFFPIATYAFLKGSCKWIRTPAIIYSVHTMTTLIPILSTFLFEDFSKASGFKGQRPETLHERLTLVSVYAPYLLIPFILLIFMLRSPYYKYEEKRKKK
T1 sequence (Q99720 whole entry): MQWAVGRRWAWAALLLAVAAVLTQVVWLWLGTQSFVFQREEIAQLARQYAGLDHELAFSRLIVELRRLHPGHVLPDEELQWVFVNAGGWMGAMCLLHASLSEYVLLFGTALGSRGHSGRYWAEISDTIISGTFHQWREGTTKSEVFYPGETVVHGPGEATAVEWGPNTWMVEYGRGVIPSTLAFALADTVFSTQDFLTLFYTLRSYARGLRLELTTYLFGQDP

| Ki (human σ1 receptor) | Ki (human σ2/TMEM97 receptor) | SMILES |
| --- | --- | --- |
| > 1000 nM | 100 to 500 nM | Cc1cc(-c2nn(C)c(Cl)c2CN2CCCCC(NCCN3CCCCC3)C2)no1 (stereo not drawn) [Example 79, 1-((5-Chloro-1-methyl-3-(5-methylisoxazol-3-yl)-1H-pyrazol-4-yl)methyl)-N-(2-(piperidin-1-yl)ethyl)azepan-3-amine] |
| 100 to 500 nM | 100 to 500 nM | CC(C)CCN[C@H]1CCCCN(Cc2c(-c3noc4c3COCC4)nn(C)c2Cl)C1 [Example 40, (S)-1-((5-Chloro-3-(6,7-dihydro-4H-pyrano[3,4-d]isoxazol-3-yl)-1-methyl-1H-pyrazol-4-yl)methyl)-N-isopentylazepan-3-amine] |
| 500 to 1000 nM | < 100 nM | Cc1cccc(-c2nn(C)c(Cl)c2C(=O)N2CCC3(CCN(CCC(C)(C)C)CC3)CC2)n1 [Example 189, (5-Chloro-1-methyl-3-(6-methylpyridin-2-yl)-1H-pyrazol-4-yl)(9-(3,3-dimethylbutyl)-3,9-diazaspiro[5.5]undecan-3-yl)methanone] |
| 500 to 1000 nM | > 1000 nM | COc1ccc(-c2nn(C)c(Cl)c2CN2CCCCC(NCCC(C)C)C2)nc1 (stereo not drawn) [Example 36, 1-((5-Chloro-3-(5-methoxypyridin-2-yl)-1-methyl-1H-pyrazol-4-yl)methyl)-N-isopentylazepan-3-amine] |
| 500 to 1000 nM | > 1000 nM | CC(C)CCNC1CCCCN(Cc2c(-c3cc(C4CC4)on3)nn(C)c2Cl)C1 (stereo not drawn) [Example 19, 1-((5-Chloro-3-(5-cyclopropylisoxazol-3-yl)-1-methyl-1H-pyrazol-4-yl)methyl)-N-isopentylazepan-3-amine] |
| 100 to 500 nM | < 100 nM | Cc1cc(-c2nn(C)c(Cl)c2CN2CC[C@H](CNCCC(C)(C)C)C2)no1 [Example 74, (R)-N-((1-((5-chloro-1-methyl-3-(5-methylisoxazol-3-yl)-1H-pyrazol-4-yl)methyl)pyrrolidin-3-yl)methyl)-3,3-dimethylbutan-1-amine] |
| 100 to 500 nM | > 1000 nM | CC(C)c1cc(-c2nn(C)c(Cl)c2CN2CCCCC(NCCC(C)(C)C)C2)no1 (stereo not drawn) [Example 15, 1-((5-Chloro-3-(5-isopropylisoxazol-3-yl)-1-methyl-1H-pyrazol-4-yl)methyl)-N-(3,3-dimethylbutyl)azepan-3-amine] |
| 500 to 1000 nM | < 100 nM | Cc1cc(-c2nn(C)c(Cl)c2C(=O)N2CCCC3(CN(CCC(C)(C)C)C3)C2)no1 [Example 193, (5-Chloro-1-methyl-3-(5-methylisoxazol-3-yl)-1H-pyrazol-4-yl)(2-(3,3-dimethylbutyl)-2,6-diazaspiro[3.5]nonan-6-yl)methanone] |
| 500 to 1000 nM | < 100 nM | Cc1cc(-c2nn(C)c(Cl)c2C(=O)N2CCC3(CCN(CCC(C)(C)C)CC3)CC2)no1 [Example 88, (5-Chloro-1-methyl-3-(5-methylisoxazol-3-yl)-1H-pyrazol-4-yl)(9-(3,3-dimethylbutyl)-3,9-diazaspiro[5.5]undecan-3-yl)methanone] |
| > 1000 nM | > 1000 nM | Cc1cc(-c2nn(C)c(Cl)c2C(=O)N2CCC3(CCN(CC(C)C)CC3)CC2)no1 [Example 89, (5-Chloro-1-methyl-3-(5-methylisoxazol-3-yl)-1H-pyrazol-4-yl)(9-isobutyl-3,9-diazaspiro[5.5]undecan-3-yl)methanone] |
| < 100 nM | < 100 nM | CCn1nc(-c2ccon2)c(CC(=O)NC2CCN(CCC(C)(C)C)CC2)c1Cl [Example 221, 2-(5-Chloro-1-ethyl-3-(isoxazol-3-yl)-1H-pyrazol-4-yl)-N-(1-(3,3-dimethylbutyl)piperidin-4-yl)acetamide] |
| 100 to 500 nM | > 1000 nM | Cc1cc(-c2nn(C)c(Cl)c2C(=O)N2CCC[C@@H](NCCC(C)C)C2)no1 [Example 108, (R)-(5-Chloro-1-methyl-3-(5-methylisoxazol-3-yl)-1H-pyrazol-4-yl)(3-(isopentylamino)piperidin-1-yl)methanone] |
| 500 to 1000 nM | < 100 nM | Cc1cc(-c2nn(C(C)C)c(Cl)c2C(=O)N2CCC3(CCN(CCC(C)(C)C)CC3)CC2)no1 [Example 183, (5-Chloro-1-isopropyl-3-(5-methylisoxazol-3-yl)-1H-pyrazol-4-yl)(9-(3,3-dimethylbutyl)-3,9-diazaspiro[5.5]undecan-3-yl)methanone] |
| 100 to 500 nM | < 100 nM | CCn1nc(-c2ccnc(C)c2)c(C(=O)N2CCC3(CCN(CCC(C)(C)C)CC3)CC2)c1Cl [Example 207, (5-Chloro-1-ethyl-3-(2-methylpyridin-4-yl)-1H-pyrazol-4-yl)(9-(3,3-dimethylbutyl)-3,9-diazaspiro[5.5]undecan-3-yl)methanone] |
| 100 to 500 nM | < 100 nM | Cc1cc(-c2nn(C)c(Cl)c2CN2CCCC(CNCCC(C)C)C2)no1 (stereo not drawn) [Example 58, N-((1-((5-Chloro-1-methyl-3-(5-methylisoxazol-3-yl)-1H-pyrazol-4-yl)methyl)piperidin-3-yl)methyl)-3-methylbutan-1-amine] |
| < 100 nM | 100 to 500 nM | CCn1nc(-c2cc(C)on2)c(C(=O)N[C@H]2CCN(CCC(C)(C)C)C2)c1Cl [Example 164, (S)-5-Chloro-N-(1-(3,3-dimethylbutyl)pyrrolidin-3-yl)-1-ethyl-3-(5-methylisoxazol-3-yl)-1H-pyrazole-4-carboxamide] |
| 100 to 500 nM | < 100 nM | CCn1nc(-c2cc(C)on2)c(C(=O)N2CCCC3(CCN(CCC(C)(C)C)CC3)C2)c1Cl [Example 150, (5-Chloro-1-ethyl-3-(5-methylisoxazol-3-yl)-1H-pyrazol-4-yl)(9-(3,3-dimethylbutyl)-2,9-diazaspiro[5.5]undecan-2-yl)methanone] |
| < 100 nM | < 100 nM | CCn1nc(-c2cccc(C(F)(F)F)n2)c(CC(=O)NC2CCN(CCC(C)(C)C)CC2)c1Cl [Example 223, 2-(5-chloro-1-ethyl-3-(6-(trifluoromethyl)pyridin-2-yl)-1H-pyrazol-4-yl)-N-(1-(3,3-dimethylbutyl)piperidin-4-yl)acetamide] |
| 100 to 500 nM | < 100 nM | Cc1cc(-c2nn(C)c(Cl)c2CC(=O)NC2CCC3(CC2)CCN(CCC(C)(C)C)CC3)no1 [Example 215, 2-(5-Chloro-1-methyl-3-(5-methylisoxazol-3-yl)-1H-pyrazol-4-yl)-N-(3-(3,3-dimethylbutyl)-3-azaspiro[5.5]undecan-9-yl)acetamide] |
| 100 to 500 nM | 100 to 500 nM | Cc1cc(-c2nn(C)c(Cl)c2CN2CCC3(CCN(CCC(C)(C)C)CC3)C2=O)no1 [Example 114, 2-((5-Chloro-1-methyl-3-(5-methylisoxazol-3-yl)-1H-pyrazol-4-yl)methyl)-8-(3,3-dimethylbutyl)-2,8-diazaspiro[4.5]decan-1-one] |
| 500 to 1000 nM | < 100 nM | Cc1cc(-c2nn(C)c(Cl)c2C(=O)N2CCC3(CCCN(CCC(C)(C)C)C3)CC2)no1 [Example 91, (5-Chloro-1-methyl-3-(5-methylisoxazol-3-yl)-1H-pyrazol-4-yl)(2-(3,3-dimethylbutyl)-2,9-diazaspiro[5.5]undecan-9-yl)methanone] |
| 100 to 500 nM | 100 to 500 nM | Cc1cc(-c2nn(C)c(Cl)c2C(=O)NC2CC3(CCN(CC(C)(C)C)CC3)C2)no1 [Example 154, 5-Chloro-1-methyl-3-(5-methylisoxazol-3-yl)-N-(7-neopentyl-7-azaspiro[3.5]nonan-2-yl)-1H-pyrazole-4-carboxamide] |
| < 100 nM | < 100 nM | CCn1nc(-c2cccc(C(F)(F)F)n2)c(CN2CC3(CCN(CCC(C)(C)C)CC3)CC2=O)c1Cl [Example 229, 2-((5-Chloro-1-ethyl-3-(6-(trifluoromethyl)pyridin-2-yl)-1H-pyrazol-4-yl)methyl)-8-(3,3-dimethylbutyl)-2,8-diazaspiro[4.5]decan-3-one] |
| 100 to 500 nM | < 100 nM | COc1cccc(-c2nn(C)c(Cl)c2C(=O)N2CCC3(CCN(CCC(C)(C)C)CC3)CC2)n1 [Example 102, (5-Chloro-3-(6-methoxypyridin-2-yl)-1-methyl-1H-pyrazol-4-yl)(9-(3,3-dimethylbutyl)-3,9-diazaspiro[5.5]undecan-3-yl)methanone] |
| < 100 nM | < 100 nM | Cc1cc(-c2nn(C)c(Cl)c2C(=O)N2CCCC3(CCN(CCC(C)(C)C)CC3)C2)no1 [Example 92, (5-Chloro-1-methyl-3-(5-methylisoxazol-3-yl)-1H-pyrazol-4-yl)(9-(3,3-dimethylbutyl)-2,9-diazaspiro[5.5]undecan-2-yl)methanone] |
| < 100 nM | < 100 nM | CCn1nc(-c2cc(C)on2)c(C(=O)NC2CC3(CCN(CCC(C)(C)C)CC3)C2)c1Cl [Example 127, 5-Chloro-N-(7-(3,3-dimethylbutyl)-7-azaspiro[3.5]nonan-2-yl)-1-ethyl-3-(5-methylisoxazol-3-yl)-1H-pyrazole-4-carboxamide] |
| < 100 nM | < 100 nM | CCn1nc(-c2ccon2)c(C(=O)NC2CCC3(CC2)CCN(CCC(C)(C)C)CC3)c1Cl [Example 142, 5-Chloro-N-(3-(3,3-dimethylbutyl)-3-azaspiro[5.5]undecan-9-yl)-1-ethyl-3-(isoxazol-3-yl)-1H-pyrazole-4-carboxamide] |
